The source of these data is patent publication US20110046079A1, “Use of Proton Pump Inhibitors as Drug Delivery Adjuvants” (priority 2008, published 2011).

This assay has as its system rat gastric corpus. It is filed as in vitro ADME. Particulars: omeprazole-treated vs control. On the procedure: The numbers provided hereinbelow (Table 6) represent the transepithelial diffusion (mucosal to serosal) of radiolabeled bradykinin. […] It includes only intact bradykinin.
Two data sets from two experiments are provided. These are bradykinin fluxes in picomoles/min/cm^2. One tissue was treated only with DMSO (vehicle control). […] The other tissue (paired pieces of rat gastric corpus) is treated with omeprazole in DMSO. […] The bradykinin leak in controls is likely due to ‘experimental artifact’—in this case mechanical damage of the tissue in handling plus incubation. The increase in flux (leak) of bradykinin seen with DMSO may not be a function of the DMSO at all, but instead simply be a result of tissue ‘breakdown’ over time due to the tissue's very finite lifespan once out of the animal.

Consider `CC[C@H](C)[C@@H]1NC(=O)[C@H](Cc2ccc(O)cc2)NC(=O)[C@@H](N)CSSC[C@@H](C(=O)N2CCC[C@H]2C(=O)N[C@@H](CC(C)C)C(=O)NCC(N)=O)NC(=O)[C@H](CC(N)=O)NC(=O)[C@H](CCC(N)=O)NC1=O` [oxytocin, Cys-Tyr-Iso-Gln-Asn-Cys-Pro-Leu-Gly], for which the “leak with omeprazole over control” value is recorded as “not observed”.
